Measured values as given in patent US20260242359A1, “IRHOM2 INHIBITORS AND USES THEREOF” (NEW YORK SOCIETY FOR THE RELIEF OF THE RUPTURED AND …, priority 2023, published 2026).

What was measured:
Type in all cases: cell-based
[1] = test system: TNFα release from LPS-stimulated THP-1 cells (iRhom2/ADAM17-dependent); assay: Primary screen (Example 1a): LPS-stimulated TNFα release from THP-1 cells, HTRF; details: Homo sapiens, LPS 100 ng/mL, 3 h, normalized against 50 μM Batimastat, read-out: Primary Screen XC50 TNFα
Experimental: (§1) Two separate screens to identify novel small molecule inhibitors of iRhom2/ADAM17 activity were developed. […] Therefore, the primary screen for small molecule inhibitors of iRhom2/ADAM17 was a screen for inhibitors that blocked the release of TNFα from LPS-stimulated THP-1 human myeloid cells, a process that depends on iRhom2 and ADAM17. […]
THP-1 cells were plated in 384 or 1,536 wells and transferred on the ultra-high throughput screening (uHTS) platform Mark III, and TNFα shedding was initiated by LPS stimulation of THP-1 cells. The extent of released TNFα was detected with the corresponding HTRF antibodies labeled with europium cryptate (donor) and d2 (acceptor). […]
7.5 nL compound and controls in DMSO [10 μM in assay; 0.25% DMSO in 3 μL Assay] were dissolved in 2 μL cell suspension [2.4E6/mL; 4800 cells/well; culture w/o PenStrep], pre-incubated at 37° C., 5% CO2, for 15 min with 1 μL LPS [100 ng/mL in 3 μL assay]. […] After an incubation at room temperature for 2 h or longer, the HTRF readout was performed. […]

[2] = test system: PMA-stimulated KL2 release from HEK-293 cells (iRhom2/ADAM17 selective substrate); assay: Secondary screen (Example 3a): PMA-stimulated KL2 release from HEK-293 cells, AP readout; details: Homo sapiens, HEK293, HEK-293 cells expressing KL2-AP, PMA 500 ng/mL, 2 h, read-out: Secondary Screen XC50 KL2
Excerpt: as §1
(§2) First, expression plasmids for alkaline phosphatase (AP)-fused KL2 and TGFα were designed and generated through gene synthesis followed by subcloning into the pcDNA3.1(+)/Hygro expression vector. […] During cell culturing, cell density and viability were monitored to ensure optimal conditions for the transfections. After PMA stimulation, AP-coupled KL2 or TGFα were detected by measurement of AP activity in the supernatant. […]
(§3) After electroporation, cells were further cultured in presence of selection antibiotics, hygromycin B, to generate stably transfected polyclonal cell pools. […] Final assay conditions were determined for the selected pools. […]
60 μL of cells (40,000/well) were added to a sterile 384-well plate. […] The reaction was stopped by addition of 20 μL of NaOH (1 M final conc.) and the absorbance of pNP was measured at 405 nm.

[3] = test system: PMA-stimulated TGFα release from HEK-293 cells (substrate of iRhom1/ADAM17 and iRhom2/ADAM17); assay: Counter screen (Example 4a): PMA-stimulated TGFα release from HEK-293 cells, AP readout; details: Homo sapiens, HEK293, HEK-293 cells expressing TGFα-AP, PMA 100 ng/mL, 2 h, read-out: Counter Screen XC50 TGFα
Experimental: A tertiary counterscreen was also performed to monitor the release of TGFα, which is a substrate of iRhom1/ADAM17 and iRhom2/ADAM17, so its release should not be blocked by an iRhom2-selective inhibitor (Maretzky T et al. (July 2013), “iRhom2 controls the substrate selectivity of stimulated ADAM117-dependent ectodomain shedding”, PNAS 110(28): 11433-11438; and Li X et al. (May 2015), “iRhoms 1 and 2 are essential upstream regulators of ADAM17-dependent EGFR signaling”, PNAS 112(19): 6080-6085).
as §2, §3
60 μL of cells (20,000/well) were added to a sterile 384-well plate. […] The reaction was stopped by addition of 20 μL of NaOH (1 M final conc.) and the absorbance of pNP was measured at 405 nm.

CCC(=O)NCCc1c(/C=C2/C(=O)NC(=O)N(c3ccc(C)cc3C)C2=O)[nH]c2ccccc12 [Compound 1]
IC50 [1]: < 0.802 µM
IC50 [2]: > 128 µM
IC50 [3]: 12.6 µM

CCOC(=O)c1ccc(Nc2nc3nonc3n3nnnc23)cc1 [Compound 2]
IC50 [1]: < 0.802 µM
IC50 [2]: > 128 µM
IC50 [3]: 9.91 µM
